1 compound from PMC8414802, “Hair Cell Generation in Cochlear Culture Models Mediated by Novel γ-Secretase Inhibitors” (Frontiers in Cell and Developmental Biology, 2021) can be followed below.

The test system of this assay is Myo7a+ hair cells and Sox2+ cells in sisomicin-damaged rat cochlear organoids. Briefly: Rat cochlear organoids after sisomicin damage. It is filed as cell-based. Here is the method:
On day 0, the cochlear sensory epithelium was dissected and the OC was separated from the modiolus and stria vascularis, as described above, from either Wistar rat pups (P2), Lgr5-GFP mice (P0–P2) or Atoh1-GFP mice (P0–P2). To separate the sensory epithelial layer from underlying mesenchyme and neurons, the OC was placed in a 100 μl drop of Matrisperse Cell Recovery Solution (Corning) for 1 h at RT, then delaminated with the aid of forceps. Gentle enzymatic dissociation of hair cells and supporting cells followed with 100 μl drop of TrypLE (Gibco), 20 min at 37°C, then mechanical trituration in DMEM/F12. The cell suspension was centrifuged for 5 min at 500 g at 4°C and resuspended in DMEM/F12 medium supplemented with B27 and N2 (Invitrogen), EGF (50 ng/ml), bFGF (50 ng/ml), IGF (25 ng/ml), CHIR99021 (GSK-3β inhibitor, 3 μM, Merck), valproic acid (HDAC inhibitor, 1 mM, Sigma), 2-phospho-L-ascorbic acid (280 μM, Stemcell Technologies) and 0.01% ampicillin (Sigma). Cells were plated at 2,000 cells per well on 96 wells plate (Corning Costar; ultra-low attachment, round-bottom) to allow aggregation at 37°C. On day 1, Matrigel (GF-depleted, Corning; 2% stock) was added to a final concentration of 0.18 mg/ml. […]
For staining and imaging, organoids were allowed to adhere ON onto transwell-permeable support membranes (Corning) in 12-well plates coated with 100% Matrigel. […] Compiled Z-projections were processed (FIJI, ver2.0) and hair cells quantified on individual planes with manual cell counter plugin, by evaluation of cytosolic expression and nuclear exclusion of Myo7a. […]
Finally, the regenerative potential of CPD3 was assessed with rat cochlear organoids testing the efficacy of CPD3 to transdifferentiate any remaining supporting cells after ototoxic damage. […] A decrease in Myo7a+ hair cells was detected 7 days following sisomicin damage (Figure 6D). […]

Regarding `COc1ccc2c(c1)N1CCC(C)(C)C1=CC(=O)[C@H]2NC(=O)[C@H](C)NC(=O)CCC(F)(F)F` [CPD3], the “Total number of Sox2 positive cells in the organoid” value (after sisomicin damage) is “did not change”. Moreover, the “Number of Myo7a+/Sox2+ hair cells” value (after sisomicin damage, p < 0.001) is listed as “did increase”. The “Myo7a+ hair cells after sisomicin damage” value (sisomicin 500 μM 2 h at day 20, 7 days culture, vs sisomicin only, p < 0.001) is recorded as “significant increase”.
